Key:
calcium channel = target: T1, calcium channel (Rattus norvegicus, UniProt P22002); assay: Calcium channel blocking activity, K+ depolarization-induced contraction of helically cut rat aortic strip; conditions: Krebs-Henselheit solution, 37° C., cumulative doses, read-out: IC50 (50% decrease of contraction of the aortic strip)
T1 construct: helically cut rat aortic strip; from tissue; host or cells: rat aorta (helically cut strip)
Description: The calcium channel blocking activity of the compounds was tested using a helically cut rat aortic strip in Krebs-Henselheit solution at 37° C., bubbled with a mixture of 95% O2 and 5% CO2. The isometrically registered contractions were induced by K^(+). depolarization. The test compounds were applied in a cumulative doses and the vasodilating activity thereof was expressed in calculated concentration of the test compound, causing 50% decrease of contraction of the aortic strip (IC50).

blood pressure = assay: Hypotensive activity, pentobarbital anaesthesized dogs; assay type: in vivo, dog; conditions: i.v.
Source text: b) The blood pressure of pentobarbital anaesthesized dogs was registered invasively in arteria femoralis. The average decrease in systolic (SBP) arid diastolic (DBP) blood pressure expressed in per cents of the starting blood pressure level after intravenous and oral administration is shown in Tables 5 and 6.

[1] = 4.6 mg/kg, value 1 of 5 (heads 5/30/60/180 min; probably 1 min)
[2] = 4.6 mg/kg, value 2 of 5 (heads 5/30/60/180 min; probably 5 min)
[3] = 4.6 mg/kg, value 3 of 5 (heads 5/30/60/180 min; probably 30 min)
[4] = 4.6 mg/kg, value 4 of 5 (heads 5/30/60/180 min; probably 60 min)
[5] = 4.6 mg/kg, value 5 of 5 (heads 5/30/60/180 min; probably 180 min)
[6] = 4.5 mg/kg, value 1 of 5 (heads 5/30/60/180 min; probably 1 min)
[7] = 4.5 mg/kg, value 2 of 5 (heads 5/30/60/180 min; probably 5 min)
[8] = 4.5 mg/kg, value 3 of 5 (heads 5/30/60/180 min; probably 30 min)
[9] = 4.5 mg/kg, value 4 of 5 (heads 5/30/60/180 min; probably 60 min)
[10] = 4.5 mg/kg, value 5 of 5 (heads 5/30/60/180 min; probably 180 min)

T1 sequence (P22002 whole entry): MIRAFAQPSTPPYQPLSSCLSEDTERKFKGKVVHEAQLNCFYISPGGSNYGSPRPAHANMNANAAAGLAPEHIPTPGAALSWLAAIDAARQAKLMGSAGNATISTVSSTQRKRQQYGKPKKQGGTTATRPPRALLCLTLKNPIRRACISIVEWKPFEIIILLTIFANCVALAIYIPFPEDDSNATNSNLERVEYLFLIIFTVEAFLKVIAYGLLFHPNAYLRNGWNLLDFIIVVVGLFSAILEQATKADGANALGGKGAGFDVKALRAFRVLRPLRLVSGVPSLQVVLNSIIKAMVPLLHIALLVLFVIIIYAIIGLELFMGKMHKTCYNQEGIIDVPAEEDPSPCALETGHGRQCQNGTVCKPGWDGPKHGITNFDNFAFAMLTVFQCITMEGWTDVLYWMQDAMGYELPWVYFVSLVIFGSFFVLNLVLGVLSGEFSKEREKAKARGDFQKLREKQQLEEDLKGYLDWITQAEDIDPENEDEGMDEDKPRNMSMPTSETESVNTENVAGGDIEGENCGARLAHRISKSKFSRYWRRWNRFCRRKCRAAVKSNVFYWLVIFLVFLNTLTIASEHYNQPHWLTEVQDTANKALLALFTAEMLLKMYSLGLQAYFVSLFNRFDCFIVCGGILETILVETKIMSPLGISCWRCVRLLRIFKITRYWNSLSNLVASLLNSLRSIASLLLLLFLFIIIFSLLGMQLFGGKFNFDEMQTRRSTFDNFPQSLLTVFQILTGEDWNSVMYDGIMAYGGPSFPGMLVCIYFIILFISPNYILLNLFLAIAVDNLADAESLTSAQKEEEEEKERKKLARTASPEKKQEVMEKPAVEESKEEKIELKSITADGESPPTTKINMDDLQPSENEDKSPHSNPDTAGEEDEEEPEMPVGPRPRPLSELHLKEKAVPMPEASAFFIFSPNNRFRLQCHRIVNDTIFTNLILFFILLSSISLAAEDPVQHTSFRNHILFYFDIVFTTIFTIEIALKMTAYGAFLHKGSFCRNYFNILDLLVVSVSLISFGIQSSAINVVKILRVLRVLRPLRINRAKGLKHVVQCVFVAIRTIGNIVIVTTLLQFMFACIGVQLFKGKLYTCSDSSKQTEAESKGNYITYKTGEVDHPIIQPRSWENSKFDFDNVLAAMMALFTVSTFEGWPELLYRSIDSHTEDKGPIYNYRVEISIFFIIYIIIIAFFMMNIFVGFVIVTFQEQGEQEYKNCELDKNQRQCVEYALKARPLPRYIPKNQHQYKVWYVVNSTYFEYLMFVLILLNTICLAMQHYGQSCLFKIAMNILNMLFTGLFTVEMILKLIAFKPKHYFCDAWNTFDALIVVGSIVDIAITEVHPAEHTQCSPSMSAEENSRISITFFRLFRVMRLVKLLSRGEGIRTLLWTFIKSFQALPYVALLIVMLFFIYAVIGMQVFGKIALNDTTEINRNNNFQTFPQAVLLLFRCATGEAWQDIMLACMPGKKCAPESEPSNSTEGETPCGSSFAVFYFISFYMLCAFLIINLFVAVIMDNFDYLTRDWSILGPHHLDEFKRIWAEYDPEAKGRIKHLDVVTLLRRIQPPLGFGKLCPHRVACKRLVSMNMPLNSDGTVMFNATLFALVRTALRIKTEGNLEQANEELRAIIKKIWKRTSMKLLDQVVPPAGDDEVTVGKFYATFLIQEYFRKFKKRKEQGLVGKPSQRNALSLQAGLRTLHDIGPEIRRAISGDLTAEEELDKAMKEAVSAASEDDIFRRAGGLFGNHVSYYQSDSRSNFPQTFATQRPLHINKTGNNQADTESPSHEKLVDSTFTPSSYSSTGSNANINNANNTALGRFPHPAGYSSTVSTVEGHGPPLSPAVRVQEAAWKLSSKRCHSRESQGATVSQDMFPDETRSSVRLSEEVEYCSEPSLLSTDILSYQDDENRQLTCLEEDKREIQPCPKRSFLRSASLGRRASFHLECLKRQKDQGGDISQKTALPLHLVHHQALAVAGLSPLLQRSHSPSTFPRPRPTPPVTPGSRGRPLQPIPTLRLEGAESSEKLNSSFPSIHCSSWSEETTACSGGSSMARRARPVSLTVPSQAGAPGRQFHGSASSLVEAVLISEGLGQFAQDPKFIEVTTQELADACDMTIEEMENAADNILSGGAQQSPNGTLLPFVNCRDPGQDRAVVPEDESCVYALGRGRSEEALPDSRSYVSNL
T1 sequence (P54290 25-1091 partner): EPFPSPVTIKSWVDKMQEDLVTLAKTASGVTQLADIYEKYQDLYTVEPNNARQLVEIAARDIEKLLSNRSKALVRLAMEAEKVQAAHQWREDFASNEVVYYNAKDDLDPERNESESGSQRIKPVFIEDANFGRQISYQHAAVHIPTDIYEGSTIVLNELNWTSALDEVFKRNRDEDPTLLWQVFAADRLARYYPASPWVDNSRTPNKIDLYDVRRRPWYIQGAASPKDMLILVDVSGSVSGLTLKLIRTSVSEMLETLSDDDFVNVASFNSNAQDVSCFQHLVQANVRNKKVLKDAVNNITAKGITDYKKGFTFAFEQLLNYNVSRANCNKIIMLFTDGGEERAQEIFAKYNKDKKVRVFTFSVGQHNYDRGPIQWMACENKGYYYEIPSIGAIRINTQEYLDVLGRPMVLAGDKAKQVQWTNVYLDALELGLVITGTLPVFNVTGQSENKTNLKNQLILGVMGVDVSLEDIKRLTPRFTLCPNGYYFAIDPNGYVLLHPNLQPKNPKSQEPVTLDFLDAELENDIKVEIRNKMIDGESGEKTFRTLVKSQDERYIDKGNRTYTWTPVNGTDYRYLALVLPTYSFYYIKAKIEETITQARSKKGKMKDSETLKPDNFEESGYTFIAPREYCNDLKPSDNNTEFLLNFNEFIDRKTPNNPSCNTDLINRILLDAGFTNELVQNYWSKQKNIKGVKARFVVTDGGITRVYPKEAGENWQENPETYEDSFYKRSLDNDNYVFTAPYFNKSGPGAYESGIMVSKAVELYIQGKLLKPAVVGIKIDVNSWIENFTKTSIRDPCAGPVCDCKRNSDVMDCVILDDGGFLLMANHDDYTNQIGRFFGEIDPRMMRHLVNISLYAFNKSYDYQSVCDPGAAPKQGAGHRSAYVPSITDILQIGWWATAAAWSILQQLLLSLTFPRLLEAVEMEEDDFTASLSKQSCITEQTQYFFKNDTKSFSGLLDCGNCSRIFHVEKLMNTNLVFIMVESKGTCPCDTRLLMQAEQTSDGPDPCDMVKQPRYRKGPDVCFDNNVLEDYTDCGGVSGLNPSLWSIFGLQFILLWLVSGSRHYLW

| SMILES | IC50 (calcium channel) [µM] | decrease in diastolic blood pressure (DBP) (blood pressure; [6]) [per cents] | decrease in systolic blood pressure (SBP) (blood pressure; [6]) [per cents] | decrease in diastolic blood pressure (DBP) (blood pressure; [7]) [per cents] | decrease in systolic blood pressure (SBP) (blood pressure; [7]) [per cents] | decrease in diastolic blood pressure (DBP) (blood pressure; [8]) [per cents] | decrease in systolic blood pressure (SBP) (blood pressure; [8]) [per cents] | decrease in diastolic blood pressure (DBP) (blood pressure; [9]) [per cents] | decrease in systolic blood pressure (SBP) (blood pressure; [9]) [per cents] | decrease in diastolic blood pressure (DBP) (blood pressure; [10]) [per cents] | decrease in systolic blood pressure (SBP) (blood pressure; [10]) [per cents] | other results |
| --- | --- | --- | --- | --- | --- | --- | --- | --- | --- | --- | --- | --- |
| COc1ccc(C(C#N)(CCCNCC2COc3ccccc3O2)C(C)C)cc1OC (single isomer, unassigned) [VUFB 18019, 5-[(+)-2,3-dihydro-1,4-benzodioxin-2-ylmethylamino]-2-(3,4-dimethoxyphenyl)-2-isopropyl valeronitrile] | 16 |  |  |  |  |  |  |  |  |  |  | decrease in diastolic blood pressure (DBP) (blood pressure; [1]): -54 per cents; decrease in systolic blood pressure (SBP) (blood pressure; [1]): -17 per cents; decrease in diastolic blood pressure (DBP) (blood pressure; [2]): -32 per cents; decrease in systolic blood pressure (SBP) (blood pressure; [2]): -32 per cents; decrease in diastolic blood pressure (DBP) (blood pressure; [3]): -8 per cents; decrease in systolic blood pressure (SBP) (blood pressure; [3]): -26 per cents; decrease in diastolic blood pressure (DBP) (blood pressure; [4]): -14 per cents; decrease in systolic blood pressure (SBP) (blood pressure; [4]): -16 per cents; decrease in diastolic blood pressure (DBP) (blood pressure; [5]): -8 per cents; decrease in systolic blood pressure (SBP) (blood pressure; [5]): -14 per cents |
| Cc1ccccc1C(C#N)(CCCNCC1COc2ccccc2O1)C(C)C (single isomer, unassigned) [VUFB 18018, 5-[(-)-2,3-dihydro-1,4-benzodioxin-2-ylmethylamino]-2-isopropyl-2- -(2-methylphenyl) valeronitrile] | 15 | -54 | -40 | -46 | -42 | -29 | -30 | -24 | -22 | -22 | -21 |  |
| Cc1ccccc1C(C#N)(CCCNCC1COc2ccccc2O1)C(C)C (single isomer, unassigned) [VUFB 18007, 5-[(+)-2,3-dihydro-1,4-benzodioxin-2-ylmethylamino]-2-isopropyl-2- -(2-methylphenyl) valeronitrite] | 15 | -66 | -47 | -41 | -33 | -25 | -27 | -19 | -22 | -12 | -17 |  |
